Assay results published in the supplement of paper PMC8612539.
In brackets after ≈: the same amount, converted by molar mass.

Key:
Enterococcus spp. = test: minimum inhibitory concentration (MIC)
Method: (§1)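 Broth microdilution MIC (Sensititre BOPO7F bovine plate, CLSI methods) of 19 antimicrobials against field isolates of P. multocida, M. haemolytica, H. somni (deep nasopharyngeal swabs) and E. coli, Enterococcus spp. (rectal swabs) from weaned dairy heifers. Incubation 16-24 h at 35 C. MIC is the lowest concentration preventing visible growth. Values with <= or > lie at the tested range limits. Trimethoprim-sulfamethoxazole is given as the trimethoprim component of a 1:19 mixture.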

Mannheimia haemolytica = test: minimum inhibitory concentration (MIC)
Method: as §1

CS(=O)(=O)c1ccc([C@@H](O)[C@@H](CF)NC(=O)C(Cl)Cl)cc1 [Florfenicol]
minimum inhibitory concentration [µg/mL]
Conditions | Enterococcus spp. | Mannheimia haemolytica
isolate (source animal id): 2 | 2 (≈ 5.58 µM) | –
isolate (source animal id): 8 | – | 1 (≈ 2.79 µM)
isolate (source animal id): 13 | – | 1 (≈ 2.79 µM)
isolate (source animal id): 18 | – | 2 (≈ 5.58 µM)
isolate (source animal id): 21 | – | 2 (≈ 5.58 µM)
isolate (source animal id): 25 | – | 2 (≈ 5.58 µM)
isolate (source animal id): 27 | – | 1 (≈ 2.79 µM)
isolate (source animal id): 28 | – | 1 (≈ 2.79 µM)
isolate (source animal id): 30 | – | 1 (≈ 2.79 µM)
isolate (source animal id): 31 | – | 1 (≈ 2.79 µM)
isolate (source animal id): 32 | – | 1 (≈ 2.79 µM)
isolate (source animal id): 34 | – | 1 (≈ 2.79 µM)
isolate (source animal id): 35 | > 8 | –
isolate (source animal id): 36 | – | 1 (≈ 2.79 µM)
isolate (source animal id): 37 | – | 1 (≈ 2.79 µM)
isolate (source animal id): 40 | – | 1 (≈ 2.79 µM)
isolate (source animal id): 41 | – | 1 (≈ 2.79 µM)
isolate (source animal id): 42 | 2 (≈ 5.58 µM) | –
isolate (source animal id): 43 | – | 2 (≈ 5.58 µM)
isolate (source animal id): 44 | 2 (≈ 5.58 µM) | –
isolate (source animal id): 46 | – | 1 (≈ 2.79 µM)
isolate (source animal id): 49 | – | 1 (≈ 2.79 µM)
isolate (source animal id): 50 | – | 1 (≈ 2.79 µM)
isolate (source animal id): 51 | – | 1 (≈ 2.79 µM)
isolate (source animal id): 52 | – | 1 (≈ 2.79 µM)
isolate (source animal id): 53 | – | 2 (≈ 5.58 µM)
isolate (source animal id): 55 | – | 1 (≈ 2.79 µM)
isolate (source animal id): 56 | – | 1 (≈ 2.79 µM)
isolate (source animal id): 57 | – | > 8
isolate (source animal id): 79 | 4 (≈ 11.2 µM) | –
isolate (source animal id): 88 | 2 (≈ 5.58 µM) | –
isolate (source animal id): 91 | 2 (≈ 5.58 µM) | –
isolate (source animal id): 92 | 2 (≈ 5.58 µM) | –
isolate (source animal id): 100 | – | 2 (≈ 5.58 µM)
isolate (source animal id): 103 | – | 1 (≈ 2.79 µM)
isolate (source animal id): 107 | – | 2 (≈ 5.58 µM)
isolate (source animal id): 108 | – | 2 (≈ 5.58 µM)
isolate (source animal id): 111 | 2 (≈ 5.58 µM) | –
isolate (source animal id): 112 | – | > 8
isolate (source animal id): 113 | – | > 8
isolate (source animal id): 121 | – | 2 (≈ 5.58 µM)
isolate (source animal id): 122 | > 8 | 2 (≈ 5.58 µM)
isolate (source animal id): 123 | 2 (≈ 5.58 µM) | > 8
isolate (source animal id): 126 | – | > 8
isolate (source animal id): 133 | 2 (≈ 5.58 µM) | > 8
isolate (source animal id): 135 | – | > 8
isolate (source animal id): 138 | – | > 8
isolate (source animal id): 141 | – | > 8
isolate (source animal id): 142 | – | 2 (≈ 5.58 µM)
isolate (source animal id): 145 | – | > 8
isolate (source animal id): 149 | – | 0.5 (≈ 1.4 µM)
isolate (source animal id): 151 | – | 0.5 (≈ 1.4 µM)
isolate (source animal id): 152 | – | 2 (≈ 5.58 µM)
isolate (source animal id): 154 | – | 0.5 (≈ 1.4 µM)
isolate (source animal id): 158 | 2 (≈ 5.58 µM) | –
isolate (source animal id): 159 | – | > 8
isolate (source animal id): 162 | – | > 8
isolate (source animal id): 168 | 2 (≈ 5.58 µM) | –
isolate (source animal id): 169 | 2 (≈ 5.58 µM) | –
isolate (source animal id): 170 | – | > 8
isolate (source animal id): 171 | 4 (≈ 11.2 µM) | 1 (≈ 2.79 µM)
isolate (source animal id): 172 | – | > 8
isolate (source animal id): 173 | – | 1 (≈ 2.79 µM)
isolate (source animal id): 175 | 4 (≈ 11.2 µM) | –
isolate (source animal id): 177 | 4 (≈ 11.2 µM) | –
isolate (source animal id): 179 | – | > 8
isolate (source animal id): 180 | – | > 8
isolate (source animal id): 181 | 2 (≈ 5.58 µM) | –
isolate (source animal id): 182 | 2 (≈ 5.58 µM) | –
isolate (source animal id): 183 | 2 (≈ 5.58 µM) | > 8
isolate (source animal id): 186 | – | > 8
isolate (source animal id): 187 | 2 (≈ 5.58 µM) | > 8
isolate (source animal id): 188 | – | > 8
isolate (source animal id): 190 | 2 (≈ 5.58 µM) | 1 (≈ 2.79 µM)
isolate (source animal id): 191 | – | > 8
isolate (source animal id): 192 | – | 1 (≈ 2.79 µM)
isolate (source animal id): 194 | 2 (≈ 5.58 µM) | –
isolate (source animal id): 195 | 2 (≈ 5.58 µM) | –
isolate (source animal id): 197 | 2 (≈ 5.58 µM) | –
isolate (source animal id): 201 | – | > 8
isolate (source animal id): 202 | – | 1 (≈ 2.79 µM)
isolate (source animal id): 209 | – | 1 (≈ 2.79 µM)
isolate (source animal id): 211 | 2 (≈ 5.58 µM) | > 8
isolate (source animal id): 214 | 2 (≈ 5.58 µM) | –
isolate (source animal id): 220 | – | > 8
isolate (source animal id): 221 | – | > 8
isolate (source animal id): 222 | 2 (≈ 5.58 µM) | –
isolate (source animal id): 223 | 2 (≈ 5.58 µM) | > 8
isolate (source animal id): 228 | 2 (≈ 5.58 µM) | –
isolate (source animal id): 230 | 2 (≈ 5.58 µM) | –
isolate (source animal id): 233 | – | 2 (≈ 5.58 µM)
isolate (source animal id): 235 | 2 (≈ 5.58 µM) | –
isolate (source animal id): 236 | 2 (≈ 5.58 µM) | –
isolate (source animal id): 237 | – | 1 (≈ 2.79 µM)
isolate (source animal id): 239 | 2 (≈ 5.58 µM) | –
isolate (source animal id): 241 | 2 (≈ 5.58 µM) | 2 (≈ 5.58 µM)
isolate (source animal id): 244 | 2 (≈ 5.58 µM) | –
isolate (source animal id): 246 | 2 (≈ 5.58 µM) | –
isolate (source animal id): 247 | 4 (≈ 11.2 µM) | –
isolate (source animal id): 250 | 2 (≈ 5.58 µM) | –
isolate (source animal id): 252 | 4 (≈ 11.2 µM) | 2 (≈ 5.58 µM)
isolate (source animal id): 253 | – | 2 (≈ 5.58 µM)
isolate (source animal id): 259 | – | > 8
isolate (source animal id): 260 | – | 2 (≈ 5.58 µM)
isolate (source animal id): 262 | – | 2 (≈ 5.58 µM)
isolate (source animal id): 268 | 2 (≈ 5.58 µM) | –
isolate (source animal id): 282 | 1 (≈ 2.79 µM) | > 8
isolate (source animal id): 285 | 4 (≈ 11.2 µM) | –
isolate (source animal id): 287 | – | 2 (≈ 5.58 µM)
isolate (source animal id): 288 | – | 0.5 (≈ 1.4 µM)
isolate (source animal id): 289 | 2 (≈ 5.58 µM) | –
isolate (source animal id): 290 | 2 (≈ 5.58 µM) | –
isolate (source animal id): 291 | – | 0.5 (≈ 1.4 µM)
isolate (source animal id): 293 | – | 2 (≈ 5.58 µM)
isolate (source animal id): 296 | 2 (≈ 5.58 µM) | –
isolate (source animal id): 298 | 2 (≈ 5.58 µM) | 8 (≈ 22.3 µM)
isolate (source animal id): 299 | – | > 8
isolate (source animal id): 300 | – | 1 (≈ 2.79 µM)
isolate (source animal id): 301 | 2 (≈ 5.58 µM) | –
isolate (source animal id): 302 | – | > 8
isolate (source animal id): 304 | – | 8 (≈ 22.3 µM)
isolate (source animal id): 306 | – | 0.5 (≈ 1.4 µM)
isolate (source animal id): 308 | – | 0.5 (≈ 1.4 µM)
isolate (source animal id): 309 | – | 0.5 (≈ 1.4 µM)
isolate (source animal id): 310 | 4 (≈ 11.2 µM) | –
isolate (source animal id): 313 | – | 2 (≈ 5.58 µM)
isolate (source animal id): 318 | – | 1 (≈ 2.79 µM)
isolate (source animal id): 320 | 1 (≈ 2.79 µM) | 1 (≈ 2.79 µM)
isolate (source animal id): 321 | – | 2 (≈ 5.58 µM)
isolate (source animal id): 323 | – | > 8
isolate (source animal id): 324 | – | 2 (≈ 5.58 µM)
isolate (source animal id): 326 | – | 2 (≈ 5.58 µM)
isolate (source animal id): 328 | – | 2 (≈ 5.58 µM)
isolate (source animal id): 329 | – | 2 (≈ 5.58 µM)
isolate (source animal id): 331 | 2 (≈ 5.58 µM) | –
isolate (source animal id): 333 | 2 (≈ 5.58 µM) | 2 (≈ 5.58 µM)
isolate (source animal id): 335 | – | 2 (≈ 5.58 µM)
isolate (source animal id): 338 | – | 2 (≈ 5.58 µM)
isolate (source animal id): 341 | > 8 | –
